Reference: ChEMBL document CHEMBL1201862, “PubChem BioAssay data set” (2004)
Calls of active or inactive are those of the source.

Experiments:
[1] = target: Lysine-specific demethylase 4C (Homo sapiens, UniProt Q9H3R0); experiment: inhibition of JMJD2C H3K9me3 demethylation – biochemical, DELFIA europium, cherry-picked samples, dose response (AID 488835); type: functional
[2] = Luminescence Cell-Based Dose Retest to Confirm Inhibitors of Cancer Stem Cells. [Related pubchem assays (depositor defined):AID2717, AID2721]; type: functional; details: Homo sapiens
[3] = viability loss of HMLE_sh_eGFP cells – cell-based, luminescence, counter-screen for HMLE_sh_ECad selective toxicity project, dose response (AID 463074); type: functional, Homo sapiens;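 also: HMLE human mammary epithelial cells expressing control shRNA against eGFP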
CAAX prenyl protease 1 = CAAX prenyl protease 1 (Saccharomyces cerevisiae S288c, UniProt P47154); experiment: yeast CAAX protease Ste24 inhibition – biochemical, S. cerevisiae, plate reader, cherry-pick, dose response (AID 488815)
Sequence of CAAX prenyl protease 1 (P47154 whole entry): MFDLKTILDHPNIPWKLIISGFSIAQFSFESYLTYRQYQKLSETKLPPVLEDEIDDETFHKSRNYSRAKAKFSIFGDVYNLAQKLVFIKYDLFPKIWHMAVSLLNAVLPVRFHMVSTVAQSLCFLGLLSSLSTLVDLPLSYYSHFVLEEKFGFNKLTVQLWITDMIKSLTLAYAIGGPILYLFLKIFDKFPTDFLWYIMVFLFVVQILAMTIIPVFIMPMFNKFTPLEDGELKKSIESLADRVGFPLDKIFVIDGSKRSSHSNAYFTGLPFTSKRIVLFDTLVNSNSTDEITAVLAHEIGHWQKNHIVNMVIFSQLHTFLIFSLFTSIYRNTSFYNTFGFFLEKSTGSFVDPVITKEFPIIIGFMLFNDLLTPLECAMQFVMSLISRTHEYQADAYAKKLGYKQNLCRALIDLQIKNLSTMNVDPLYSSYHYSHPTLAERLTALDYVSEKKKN

Sequence of Lysine-specific demethylase 4C (Q9H3R0 whole entry): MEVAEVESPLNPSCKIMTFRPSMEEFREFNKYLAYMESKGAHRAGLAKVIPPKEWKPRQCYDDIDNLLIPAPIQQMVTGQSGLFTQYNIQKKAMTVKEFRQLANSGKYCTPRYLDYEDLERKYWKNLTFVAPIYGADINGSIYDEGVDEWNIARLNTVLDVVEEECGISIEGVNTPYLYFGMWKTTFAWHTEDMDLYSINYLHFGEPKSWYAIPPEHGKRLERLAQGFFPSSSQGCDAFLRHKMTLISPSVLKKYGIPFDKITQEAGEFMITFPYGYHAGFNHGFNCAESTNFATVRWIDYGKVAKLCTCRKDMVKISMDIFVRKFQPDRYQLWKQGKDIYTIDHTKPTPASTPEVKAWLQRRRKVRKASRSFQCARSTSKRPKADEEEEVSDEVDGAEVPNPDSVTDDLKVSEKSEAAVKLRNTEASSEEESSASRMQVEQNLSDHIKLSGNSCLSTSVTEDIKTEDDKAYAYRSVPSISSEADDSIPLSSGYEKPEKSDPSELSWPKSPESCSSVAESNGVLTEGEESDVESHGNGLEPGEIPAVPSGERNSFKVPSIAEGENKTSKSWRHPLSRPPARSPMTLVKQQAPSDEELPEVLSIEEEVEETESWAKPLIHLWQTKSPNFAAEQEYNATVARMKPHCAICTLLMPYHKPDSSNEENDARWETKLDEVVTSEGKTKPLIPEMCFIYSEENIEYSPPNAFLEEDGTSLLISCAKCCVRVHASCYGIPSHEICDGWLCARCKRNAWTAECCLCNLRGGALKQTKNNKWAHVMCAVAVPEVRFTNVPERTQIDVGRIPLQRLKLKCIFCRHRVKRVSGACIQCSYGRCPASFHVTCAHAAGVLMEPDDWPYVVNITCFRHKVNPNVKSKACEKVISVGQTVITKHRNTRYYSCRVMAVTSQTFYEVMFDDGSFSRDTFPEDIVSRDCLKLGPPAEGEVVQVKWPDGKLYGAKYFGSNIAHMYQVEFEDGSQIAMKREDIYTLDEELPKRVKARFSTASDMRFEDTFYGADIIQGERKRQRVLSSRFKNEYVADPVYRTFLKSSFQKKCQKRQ

## COc1ccc(-c2nc(C#N)c(NCc3ccc(F)cc3)o2)cc1OC
[1]
  AC50: 59.4 µM (active)

## COc1cc(OC)cc(-c2c(-c3cccs3)c3cc(-c4ccc(N(C)C)nc4)ccc3n2C)c1
[2]
  AC50: 28.5 µM (active)
[3]
  AC50: 109 µM (active)

## Cc1cc(N2CCOCC2)n2cc(-c3ccccc3)nc2n1
CAAX prenyl protease 1
  AC50: 38.6 µM (active)
